Source: patent US8835470B2, “Mandelamide heterocyclic compounds” (Bristol-Myers Squibb Company, priority 2010, dated 2014)

Assays:
S1P1 [1] = biological target: T1, S1P1 (Homo sapiens (Human), UniProt P21453); test: Receptor [35S] GTPγS Binding Assay, S1P1; type: biochemical; details: for EC50: membranes from S1P1/CHO cells, [35S]GTP; for GTPγS S1P3/S1P1: ratio of GTPγS S1P3 EC50 to GTPγS S1P1 EC50, * and ** S1P3 value at detection limit
Method: (§1) Receptor [35S] GTPγS Binding Assays
(§2) Membranes prepared from S1P1/CHO cells or EDG3-Ga15-bla HEK293T cells were added to the compound plate (40 μl/well, final protein 3 μg/well) with MULTIDROP®. [^35S]GTP (1250 Ci/mmol, Perkin Elmer) was diluted in assay buffer: 20 mM HEPES, pH7.5, 10 mM MgCl2, 150 mM NaCl, 1 mM EGTA, 1 mM DTT, 10 μM GDP, 0.1% fatty acid free BSA, and 10 μg/ml Saponin to 0.4 nM. 40 μl of the [^35S] GTP solution was added to the compound plate with a final concentration of 0.2 nM. The reaction was kept at room temperature for 45 min. At the end of incubation, all the mixtures in the compound plate were transferred to a 384 well FB filter plates via GPCR robot system. The filter plate was washed with water 4 times by using the modified manifold Embla plate washer and dried at 60° C. for 45 min. 30 μl of MicroScint 20 scintillation fluid was added to each well for counting at Packard TOPCOUNT®.
A larger value for the GTPγS S1P3 EC50 value indicated less activity in the GTPγS S1P3 binding assay.

S1P1 [2] = biological target: T1, S1P1; test: S1P1 Binding Assay; details: membranes from CHO cells expressing human S1P1; 33P-S1P ligand; rounded to two digits
Method: Membranes were prepared from CHO cells expressing human S1P1. Cells were dissociated in buffer containing 20 mM HEPES, pH 7.5, 50 mM NaCl, 2 mM EDTA and Protease Inhibitor cocktail (Roche), and disrupted on ice using the Polytron homogenizer. The homogenate was centrifuged at 20,000 rpm (48,000 G) and the supernatant was discarded. The membrane pellets were resuspended in buffer containing 50 mM HEPES, pH 7.5, 100 mM NaCl, 1 mM MgCl2, 2 mM EDTA and stored in aliquots at −80° C. after protein concentration determination. Membranes (2 μg/well) and 0.03 nM final concentration of ^33P-S1P ligand (1 mCi/ml, American Radiolabeled Chemicals) were added to the compound plates. Binding was performed for 45 minutes at room temperature, terminated by collecting the membranes onto GF/B filter plates, and radioactivity was measured by TOPCOUNT®. The competition data of the test compounds over a range of concentrations was plotted as percentage inhibition of radioligand specific binding. The IC50 is defined as the concentration of competing ligand needed to reduce specific binding by 50%.
The results in Table A were rounded to two digits.

S1P3 = S1P3 (Homo sapiens (Human), UniProt Q99500); test: Receptor [35S] GTPγS Binding Assay, S1P3; type: biochemical; details: membranes from EDG3-Ga15-bla HEK293T cells; * detection limit 62,500 nM, ** detection limit 32,500 nM
Method: as §1
as §2, with “Compounds were loaded in a 384 FALCON® v-bottom plate (0.5 μl/well in a 3-fold dilution). Membranes” for “Membranes”, “TOPCOUNT®. EC50 is defined as the agonist concentration that corresponds to 50% of the Ymax (maximal response) obtained for each individual compound tested.” for “TOPCOUNT®.”
A smaller value for GTPγS S1P1 EC50 value indicated greater activity for the compound in the GTPγS S1P1 binding assay. A larger value for the GTPγS S1P3 EC50 value indicated less activity in the GTPγS S1P3 binding assay.

circulating lymphocytes = test: Blood Lymphocyte Reduction Assay (BLR) in Rodents; type: in vivo; details: Rattus norvegicus, Lewis rats, oral, 4 hr, vs vehicle group
Method: Blood Lymphocyte Reduction Assay (BLR) in Rodents
Lewis rats were dosed orally with test article (as a solution or suspension in the vehicle) or vehicle alone (polyethylene glycol 300, “PEG300”). Blood was drawn at 4 hr by retro-orbital bleeding. Blood lymphocyte counts were determined on an ADVIA® 120 Hematology Analyzer (Siemens Healthcare Diagnostics). The results were measured as a reduction in the percentage of circulating lymphocytes as compared to the vehicle treated group at the 4 hr measurement. The results represent the average results of all animals within each treatment group (n=3-4).
The following examples were tested in the Blood Lymphocyte Reduction assay (BLR) described hereinabove and the results are shown in Table D for rats.

T1 sequence (P21453 whole entry): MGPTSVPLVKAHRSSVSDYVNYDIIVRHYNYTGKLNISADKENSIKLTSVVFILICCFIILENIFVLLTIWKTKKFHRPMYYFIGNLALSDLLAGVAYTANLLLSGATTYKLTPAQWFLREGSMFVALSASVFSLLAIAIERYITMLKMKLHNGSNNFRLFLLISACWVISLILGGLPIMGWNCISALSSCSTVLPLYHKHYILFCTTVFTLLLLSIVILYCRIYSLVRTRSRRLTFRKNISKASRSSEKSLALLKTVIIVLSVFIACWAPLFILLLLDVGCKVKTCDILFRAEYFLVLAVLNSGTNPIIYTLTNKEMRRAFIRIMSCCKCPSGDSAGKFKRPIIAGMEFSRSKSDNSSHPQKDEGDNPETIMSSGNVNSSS
Chain of S1P3 (Q99500 whole entry): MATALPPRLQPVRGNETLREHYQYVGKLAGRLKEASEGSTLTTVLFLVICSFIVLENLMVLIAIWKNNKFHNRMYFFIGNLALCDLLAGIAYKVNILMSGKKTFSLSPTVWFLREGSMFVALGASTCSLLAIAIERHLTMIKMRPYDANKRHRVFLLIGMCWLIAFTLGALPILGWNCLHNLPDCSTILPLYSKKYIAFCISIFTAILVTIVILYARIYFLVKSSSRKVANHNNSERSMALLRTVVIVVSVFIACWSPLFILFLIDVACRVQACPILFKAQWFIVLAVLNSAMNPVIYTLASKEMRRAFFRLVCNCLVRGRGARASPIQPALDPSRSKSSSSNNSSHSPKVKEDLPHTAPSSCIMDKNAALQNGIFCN

EC50 (S1P1 [1]) [nM]	GTPγS S1P3/S1P1 (S1P1 [1])	IC50 (S1P1 [2]) [nM]	EC50 (S1P3) [nM]	SMILES	inhibition in vivo at 1 mg/kg (circulating lymphocytes) [%]	inhibition in vivo at 3 mg/kg (circulating lymphocytes) [%]
2	5234	0.85	10500	O=C(NCCO)C(O)c1ccc(-c2noc(-c3onc(-c4ccccc4)c3C(F)(F)F)n2)cc1 (single isomer, unassigned) [Example 71, 2-Hydroxy-N-(2-hydroxyethyl)-2-(4-(5-(3-phenyl-4-(trifluoromethyl)isoxazol-5-yl)-1,2,4-oxadiazol-3-yl)phenyl)acetamide]	71	
				C[C@@H](C#N)NC(=O)C(O)c1ccc(-c2noc(-c3onc(-c4ccccc4)c3C(F)(F)F)n2)cc1 (stereo partly drawn) [Example 40, N-((S)-1-Cyanoethyl)-2-hydroxy-2-(4-(5-(3-phenyl-4-(trifluoromethyl)isoxazol-5-yl)-1,2,4-oxadiazol-3-yl)phenyl)acetamide]	80	
5.8	2060	2.9	12000	O=C(NCCC(=O)N1CC(O)C1)C(O)c1ccc(-c2noc(-c3onc(-c4ccccc4)c3C(F)(F)F)n2)cc1 (racemic) [Example 93, (R/S)-2-Hydroxy-N-(3-(3-hydroxyazetidin-1-yl)-3-oxopropyl)-2-(4-(5-(3-phenyl-4-(trifluoromethyl)isoxazol-5-yl)-1,2,4-oxadiazol-3-yl)phenyl)acetamide]		73
1.9	1805	0.3	3430	CN(C)C(=O)CCNC(=O)C(O)c1ccc(-c2noc(-c3onc(-c4ccccc4)c3C(F)(F)F)n2)cc1 (single isomer, unassigned) [Example 74, 3-(2-Hydroxy-2-(4-(5-(3-phenyl-4-(trifluoromethyl)isoxazol-5-yl)-1,2,4-oxadiazol-3-yl)phenyl)acetamido)-N,N-dimethylpropanamide]		84
0.67	4679	0.46	3130	CC(C)(O)CNC(=O)CCNC(=O)C(O)c1ccc(-c2noc(-c3onc(-c4ccccc4)c3C(F)(F)F)n2)cc1 (single isomer, unassigned) [Example 6, 3-(2-Hydroxy-2-(4-(5-(3-phenyl-4-(trifluoromethyl)isoxazol-5-yl)-1,2,4-oxadiazol-3-yl)phenyl)acetamido)-N-(2-hydroxy-2-methylpropyl)propanamide]		73
11.9	802	4.5	9540	O=C(NC1CCS(=O)(=O)C1)C(O)c1ccc(-c2noc(-c3onc(-c4ccccc4)c3C(F)(F)F)n2)cc1 (stereo not shown) [Example 31, 2-Hydroxy-2-(4-(5-(3-phenyl-4-(trifluoromethyl)isoxazol-5-yl)-1,2,4-oxadiazol-3-yl)phenyl)-N-(3,3-dioxide-tetrahydrothiophen-3-yl)acetamide]	54	
1050	> 60*	350	> 62500	CCN(C)C(=O)C(O)c1ccc(-c2noc(-c3onc(-c4ccccc4)c3C(F)(F)F)n2)cc1 (racemic) [Example 24, (R/S)-N-Ethyl-2-hydroxy-N-methyl-2-(4-(5-(3-phenyl-4-(trifluoromethyl)isoxazol-5-yl)-1,2,4-oxadiazol-3-yl)phenyl)acetamide]		
31.5	171	13	5380	O=C(NCc1nc2ccccc2[nH]1)C(O)c1ccc(-c2noc(-c3onc(-c4ccccc4)c3C(F)(F)F)n2)cc1 (racemic) [Example 90, (R/S)-N-((1H-Benzo[d]imidazol-2-yl)methyl)-2-hydroxy-2-(4-(5-(3-phenyl-4-(trifluoromethyl)isoxazol-5-yl)-1,2,4-oxadiazol-3-yl)phenyl)acetamide]		
